What follows are compounds tested on Arachidonate-Induced Bronchospasm (cyclooxygenase) (assay: Pulmonary Mechanics Assay: arachidonate-induced bronchospasm without indomethacin (indicative of cyclooxygenase inhibition)). Conditions: Cavia porcellus, ID dosing, 50 mg/kg, guinea pig, read-out: Inhibition of Arachidonate-Induced Bronchospasm (ID Dosing), % Inh. without Indomethacin.
Format: in vivo, male Hartley guinea pigs
Method: (§1) The bronchodilating activity of the compounds was tested in a pulmonary mechanics assay. Basically, male Hartley guinea pigs (about 400-500 g) were anesthetized with urethane (2 g/kg, i.p.) and placed in a whole body Plethysmograph. Cannulations of a jugular vein and carotid artery were performed for compound administration and monitoring blood pressure, respectively. The trachea was cannulated for respiration at a constate volume via a miniature starling pump. A Validyne differential pressure transducer (±20 cm H2 O) sensed transpleural pressure via a 15 gauge needle inserted into the pleural cavity and a sidearm from the tracheal cannula. Tidal volume was sensed by another Validyne differential pressure transducer (±2 cm H2 O) from pressure changes inside the plethysmograph. An on-line Buxco pulmonary mechanics computer calculated air flow, dynamic lung compliance and lung resistance. The values were recorded on a print-out.
(§2) The guinea pigs were pretreated with succinyl choline (1.2 mg/kg, i.v.) to arrest spontaneous respiration. A control challenge of arachidonic acid (0.5-1.0 mg/kg, i.v.) was administered, and the animals were then dosed with the test compound by various routes. At least 10 minutes were allowed to expire between arachidonic acid challenges. A second challenge was given and compared to the control response. This comparison was indicative of cyclooxygenase inhibition. Indomethacin (10 mg/kg, i.v.) was administered immediately after the second challenge. A third challenge of a higher dose of arachidonic acid (5-10 mg/kg, i.v.) was given. This response was induced by SRS-A and compared to the responses elicited by a separate control group of animals. Activity was indicative of lipoxygenase inhibition. Propranolol (0.005 mg/kg. i.v.) may be given prior to the third challenge to enhance the response to SRS-A.
(§3) Bronchoconstriction induced by arachidonic acid with or without indomethacin was expressed as maximum percent change in dynamic lung compliance (Cdyn) and maximum percent increase in lung resistance (RL). Each guinea pig served as its own control for cyclooxygenase evaluation. The results are shown in Table I and are expressed as the percent inhibition of control.

Row | Structure (SMILES) | inhibition in vivo at 50 mg/kg [%]
1 | CCCCCCCCCCN(O)C(=O)N(C)C [Example 11, N,N-Dimethyl-N'-decyl-N'-hydroxyurea] | 36
2 | CCCCCCCCCCCN(O)C(=O)N(C)C [Example 12, N,N-Dimethyl-N'-undecyl-N'-hydroxyurea] | -9
3 | CCCCCCCCCCCCCN(O)C(=O)N(C)C [Example 14, N,N-Dimethyl-N'-tridecyl-N'-hydroxyurea] | -128
4 | CCCCCCCCCCCCCCN(O)C(=O)N(C)C [Example 15, N,N-Dimethyl-N'-tetradecyl-N'-hydroxyurea] | -26

Same assay, conditions: Cavia porcellus, ID dosing, 100 mg/kg, guinea pig, read-out: Inhibition of Arachidonate-Induced Bronchospasm (ID Dosing), % Inh. without Indomethacin

Row | Structure (SMILES) | inhibition in vivo at 100 mg/kg [%]
5 | CCCCCCCCCCNC(=O)N(C)O [Example 16, N-Decyl-N'-methyl-N'-hydroxyurea] | < 20

Same assay, conditions: Cavia porcellus, IV dosing, 15 mg/kg, guinea pig, read-out: Inhibition of Arachidonate-Induced Bronchospasm (IV Dosing), % Inh. without Indomethacin

Row | Structure (SMILES) | inhibition in vivo at 15 mg/kg [%]
6 | CCCCCCCCCCN(O)C(=O)N(CC)CC [Example 1, N,N-Diethyl-N'-decyl-hydroxyurea] | 54
7 | CCCCCCCCCCN(O)C(=O)NC [Example 2, N-Methyl-N'-decyl-N'-hydroxyurea] | 32
8 | CCCCCCCCCCN(O)C(=O)NCCC(=O)OC [Example 4, N-[2-(Methoxycarbonyl)ethyl]-N'-decyl-N'-hydroxyurea] | -39
9 | CCCCCCCCCCN(O)C(=O)NCCCC(=O)OC [Example 5, N-[3-(Methoxycarbonyl)propyl]-N'-decyl-N'-hydroxyurea] | < 20
10 | CCCCCCCCCCN(O)C(=O)NCCCCCCC(=O)OC [Example 6, N-[6-(Methoxycarbonyl)hexyl]-N'-decyl-N'-hydroxyurea] | -45
11 | CCCCCCCCCCN(O)C(=O)N(C)C [Example 11, N,N-Dimethyl-N'-decyl-N'-hydroxyurea] | 95
12 | CCCCCCCCCCNC(=O)N(C)O [Example 16, N-Decyl-N'-methyl-N'-hydroxyurea] | 55

Each compound was assayed on Arachidonate-Induced Bronchospasm (lipoxygenase) (assay: Pulmonary Mechanics Assay: arachidonate-induced bronchospasm with indomethacin (SRS-A response, indicative of lipoxygenase inhibition)). Conditions: Cavia porcellus, ID dosing, 50 mg/kg, guinea pig, read-out: Inhibition of Arachidonate-Induced Bronchospasm (ID Dosing), % Inh. with Indomethacin.
Format: in vivo, male Hartley guinea pigs
Method: as §1, §2, §3

Row | Structure (SMILES) | inhibition in vivo at 50 mg/kg [%]
13 | CCCCCCCCCCN(O)C(=O)N(C)C [Example 11, N,N-Dimethyl-N'-decyl-N'-hydroxyurea] | -46
14 | CCCCCCCCCCCN(O)C(=O)N(C)C [Example 12, N,N-Dimethyl-N'-undecyl-N'-hydroxyurea] | 40
15 | CCCCCCCCCCCCCN(O)C(=O)N(C)C [Example 14, N,N-Dimethyl-N'-tridecyl-N'-hydroxyurea] | 49
16 | CCCCCCCCCCCCCCN(O)C(=O)N(C)C [Example 15, N,N-Dimethyl-N'-tetradecyl-N'-hydroxyurea] | 46

Same assay, conditions: Cavia porcellus, ID dosing, 100 mg/kg, guinea pig, read-out: Inhibition of Arachidonate-Induced Bronchospasm (ID Dosing), % Inh. with Indomethacin

Row | Structure (SMILES) | inhibition in vivo at 100 mg/kg [%]
17 | CCCCCCCCCCNC(=O)N(C)O [Example 16, N-Decyl-N'-methyl-N'-hydroxyurea] | 35

Same assay, conditions: Cavia porcellus, IV dosing, 15 mg/kg, guinea pig, read-out: Inhibition of Arachidonate-Induced Bronchospasm (IV Dosing), % Inh. with Indomethacin

Row | Structure (SMILES) | inhibition in vivo at 15 mg/kg [%]
18 | CCCCCCCCCCN(O)C(=O)N(CC)CC [Example 1, N,N-Diethyl-N'-decyl-hydroxyurea] | 38
19 | CCCCCCCCCCN(O)C(=O)NC [Example 2, N-Methyl-N'-decyl-N'-hydroxyurea] | 44
20 | CCCCCCCCCCN(O)C(=O)NCCC(=O)OC [Example 4, N-[2-(Methoxycarbonyl)ethyl]-N'-decyl-N'-hydroxyurea] | < 20
21 | CCCCCCCCCCN(O)C(=O)NCCCC(=O)OC [Example 5, N-[3-(Methoxycarbonyl)propyl]-N'-decyl-N'-hydroxyurea] | 37
22 | CCCCCCCCCCN(O)C(=O)NCCCCCCC(=O)OC [Example 6, N-[6-(Methoxycarbonyl)hexyl]-N'-decyl-N'-hydroxyurea] | < 20
23 | CCCCCCCCCCN(O)C(=O)N(C)C [Example 11, N,N-Dimethyl-N'-decyl-N'-hydroxyurea] | 98
24 | CCCCCCCCCCNC(=O)N(C)O [Example 16, N-Decyl-N'-methyl-N'-hydroxyurea] | 58

The compounds below were run against T1, 5-lipoxygenase (Rattus norvegicus, UniProt P12527) (assay: Inhibition of 5-lipoxygenase in cell-free homogenate of rat basophilic leukemia (RBL-1) cells). Conditions: 3 μM; RBL-1 cell-free homogenate; read-out: Inhibition of 5-Lipoxygenase, % Inh. @ 3 μM.
T1 construct: The cell-free homogenate was prepared by sonication of the cells followed by centrifugation at 40,000 xg; endogenous in cells; host or cells: RBL-1 (rat basophilic leukemia) cells, 40,000 xg supernatant of the sonicate
T1 sequence (P12527 1-673): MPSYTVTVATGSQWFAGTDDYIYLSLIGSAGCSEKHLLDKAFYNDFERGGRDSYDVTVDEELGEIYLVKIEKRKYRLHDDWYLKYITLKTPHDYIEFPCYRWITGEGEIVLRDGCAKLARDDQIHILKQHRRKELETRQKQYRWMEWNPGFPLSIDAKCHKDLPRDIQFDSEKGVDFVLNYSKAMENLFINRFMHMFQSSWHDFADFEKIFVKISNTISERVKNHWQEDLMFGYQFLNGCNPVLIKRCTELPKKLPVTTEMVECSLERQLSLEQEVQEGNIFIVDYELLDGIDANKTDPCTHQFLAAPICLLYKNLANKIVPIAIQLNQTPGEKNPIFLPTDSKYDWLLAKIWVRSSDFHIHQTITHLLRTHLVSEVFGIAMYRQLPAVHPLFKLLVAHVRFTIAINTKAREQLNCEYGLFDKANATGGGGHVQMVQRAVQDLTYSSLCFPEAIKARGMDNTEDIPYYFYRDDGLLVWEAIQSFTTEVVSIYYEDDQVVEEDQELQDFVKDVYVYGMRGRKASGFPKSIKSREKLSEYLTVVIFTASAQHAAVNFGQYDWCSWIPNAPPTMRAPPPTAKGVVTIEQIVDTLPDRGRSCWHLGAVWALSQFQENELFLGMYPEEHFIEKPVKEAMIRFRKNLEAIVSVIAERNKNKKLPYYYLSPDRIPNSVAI
Format: biochemical
Method: The inhibition of 5-lipoxygenase was tested in a cell-free homogenate by the procedure of B. Jakschik et al., Biochem.Biophys.Res.Comm. 95, 103 (1980). Basically, rat basophilic leukemia cells (RBL-1 cells) were maintained in culture in a suitable medium, and were collected by centrifugation prior to assay. The cell-free homogenate was prepared by sonication of the cells followed by centrifugation at 40,000 xg. The CaCl2 dependent production of lipoxygenase products from ^14 C-arachidonic acid in the 40,000 xg supernatant was monitored in the presence of buffer (or other vehicle) or drug. Products were isolated by acidification and extraction, followed by thin layer chromatography. Radioactive areas corresponding to the authentic lipoxygenase products were quantitated by liquid scintillation counting. Data was reported as the IC50, the concentration causing 50% inhibition of the generation of lipoxygenase products. The results are shown it Table I as the percent inhibition at 3 μM or the amount of compound necessary to cause 50% inhibition.

Row | inhibition at 3 µM [%] | Structure (SMILES)
25 | 100 | CCCCCCCCCCN(O)C(=O)N(CC)CC [Example 1, N,N-Diethyl-N'-decyl-hydroxyurea]
26 | 100 | CCCCCCCCCCN(O)C(=O)NCCC(=O)OC [Example 4, N-[2-(Methoxycarbonyl)ethyl]-N'-decyl-N'-hydroxyurea]
27 | 100 | CCCCCCCCCCN(O)C(=O)NCCCC(=O)OC [Example 5, N-[3-(Methoxycarbonyl)propyl]-N'-decyl-N'-hydroxyurea]
28 | 100 | CCCCCCCCCCN(O)C(=O)NCCCCCCC(=O)OC [Example 6, N-[6-(Methoxycarbonyl)hexyl]-N'-decyl-N'-hydroxyurea]
29 | 100 | CCCCCCCCCCCN(O)C(=O)N(C)C [Example 12, N,N-Dimethyl-N'-undecyl-N'-hydroxyurea]
30 | 95 | CCCCCCCCCCCCCN(O)C(=O)N(C)C [Example 14, N,N-Dimethyl-N'-tridecyl-N'-hydroxyurea]
31 | 100 | CCCCCCCCCCCCCCN(O)C(=O)N(C)C [Example 15, N,N-Dimethyl-N'-tetradecyl-N'-hydroxyurea]

Same assay, conditions: RBL-1 cell-free homogenate

Row | IC50 [µM] | Structure (SMILES)
32 | 0.09 | CCCCCCCCCCN(O)C(=O)NC [Example 2, N-Methyl-N'-decyl-N'-hydroxyurea]
33 | 0.1 | CCCCCCCCCCN(O)C(=O)N(C)C [Example 11, N,N-Dimethyl-N'-decyl-N'-hydroxyurea]
34 | 0.21 | CCCCCCCCCCNC(=O)N(C)O [Example 16, N-Decyl-N'-methyl-N'-hydroxyurea]

These compounds were tested on Arachidonate-Induced Ear Edema (assay: Arachidonic Acid-Induced Ear Edema Assay). Conditions: topical, mouse ear.
Format: in vivo
Method: The topical anti-inflammatory activity of a compound was determined by its ability to inhibit an experimentally-induced inflammation in the mouse ear. Basically, four milligrams of arachidonic acid in acetone were applied to the dorsal surface of one ear with a microliter pipette. The mice were sacrificed at various times after application of arachidonic acid (one-half to six hours). A section of each ear was removed with a 7 mm round punch and weighed on an electronic or analytical balance. The difference in weight between treated and untreated ears was determined. Compounds to be evaluated for anti-inflammatory activity can be incorporated directly into the irritant mixture or at various times prior to or after application of arachidonic acid.
The degree of anti-inflammatory activity is shown in Table I, and is expressed in terms of the percent inhibition of ear weight increase.

Row | Structure (SMILES) | Inhibition of Arachidonate-Induced Ear Edema, ED50 [µg]
35 | CCCCCCCCCCN(O)C(=O)NC [Example 2, N-Methyl-N'-decyl-N'-hydroxyurea] | 29
36 | CCCCCCCCCCN(O)C(=O)N(C)C [Example 11, N,N-Dimethyl-N'-decyl-N'-hydroxyurea] | 43
37 | CCCCCCCCCCCN(O)C(=O)N(C)C [Example 12, N,N-Dimethyl-N'-undecyl-N'-hydroxyurea] | 65
38 | CCCCCCCCCCCCCN(O)C(=O)N(C)C [Example 14, N,N-Dimethyl-N'-tridecyl-N'-hydroxyurea] | 156
39 | CCCCCCCCCCNC(=O)N(C)O [Example 16, N-Decyl-N'-methyl-N'-hydroxyurea] | 28

Same assay, conditions: topical; 200 μg topically, mouse ear; read-out: Inhibition of Arachidonate-Induced Ear Edema, % Inh. (μg topically)

Row | Structure (SMILES) | inhibition in vivo at 0.2 mg [%]
40 | CCCCCCCCCCCN(O)C(=O)N(C)C [Example 12, N,N-Dimethyl-N'-undecyl-N'-hydroxyurea] | 94
41 | CCCCCCCCCCCCCN(O)C(=O)N(C)C [Example 14, N,N-Dimethyl-N'-tridecyl-N'-hydroxyurea] | 95
42 | CCCCCCCCCCCCCCN(O)C(=O)N(C)C [Example 15, N,N-Dimethyl-N'-tetradecyl-N'-hydroxyurea] | 26

Same assay, conditions: topical; 400 μg topically, mouse ear; read-out: Inhibition of Arachidonate-Induced Ear Edema, % Inh. (μg topically)

Row | Structure (SMILES) | inhibition in vivo at 0.4 mg [%]
43 | CCCCCCCCCCN(O)C(=O)N(CC)CC [Example 1, N,N-Diethyl-N'-decyl-hydroxyurea] | 52
44 | CCCCCCCCCCN(O)C(=O)NC [Example 2, N-Methyl-N'-decyl-N'-hydroxyurea] | 82
45 | CCCCCCCCCCN(O)C(=O)NCCC(=O)OC [Example 4, N-[2-(Methoxycarbonyl)ethyl]-N'-decyl-N'-hydroxyurea] | 65
46 | CCCCCCCCCCN(O)C(=O)NCCCC(=O)OC [Example 5, N-[3-(Methoxycarbonyl)propyl]-N'-decyl-N'-hydroxyurea] | 49
47 | CCCCCCCCCCN(O)C(=O)NCCCCCCC(=O)OC [Example 6, N-[6-(Methoxycarbonyl)hexyl]-N'-decyl-N'-hydroxyurea] | 30
48 | CCCCCCCCCCN(O)C(=O)N(C)C [Example 11, N,N-Dimethyl-N'-decyl-N'-hydroxyurea] | 90
49 | CCCCCCCCCCNC(=O)N(C)O [Example 16, N-Decyl-N'-methyl-N'-hydroxyurea] | 73
